Reference: patent publication US11427548B2 (Arvinas Operations, Inc., priority 2015, dated 2022)
Read-outs that look alike come from different tables or passages of the source.

Target: T1, Androgen Receptor (Homo sapiens, UniProt P10275)
T1 construct: endogenous in cells; host or cells: VCaP cells
T1 sequence (P10275 1-920): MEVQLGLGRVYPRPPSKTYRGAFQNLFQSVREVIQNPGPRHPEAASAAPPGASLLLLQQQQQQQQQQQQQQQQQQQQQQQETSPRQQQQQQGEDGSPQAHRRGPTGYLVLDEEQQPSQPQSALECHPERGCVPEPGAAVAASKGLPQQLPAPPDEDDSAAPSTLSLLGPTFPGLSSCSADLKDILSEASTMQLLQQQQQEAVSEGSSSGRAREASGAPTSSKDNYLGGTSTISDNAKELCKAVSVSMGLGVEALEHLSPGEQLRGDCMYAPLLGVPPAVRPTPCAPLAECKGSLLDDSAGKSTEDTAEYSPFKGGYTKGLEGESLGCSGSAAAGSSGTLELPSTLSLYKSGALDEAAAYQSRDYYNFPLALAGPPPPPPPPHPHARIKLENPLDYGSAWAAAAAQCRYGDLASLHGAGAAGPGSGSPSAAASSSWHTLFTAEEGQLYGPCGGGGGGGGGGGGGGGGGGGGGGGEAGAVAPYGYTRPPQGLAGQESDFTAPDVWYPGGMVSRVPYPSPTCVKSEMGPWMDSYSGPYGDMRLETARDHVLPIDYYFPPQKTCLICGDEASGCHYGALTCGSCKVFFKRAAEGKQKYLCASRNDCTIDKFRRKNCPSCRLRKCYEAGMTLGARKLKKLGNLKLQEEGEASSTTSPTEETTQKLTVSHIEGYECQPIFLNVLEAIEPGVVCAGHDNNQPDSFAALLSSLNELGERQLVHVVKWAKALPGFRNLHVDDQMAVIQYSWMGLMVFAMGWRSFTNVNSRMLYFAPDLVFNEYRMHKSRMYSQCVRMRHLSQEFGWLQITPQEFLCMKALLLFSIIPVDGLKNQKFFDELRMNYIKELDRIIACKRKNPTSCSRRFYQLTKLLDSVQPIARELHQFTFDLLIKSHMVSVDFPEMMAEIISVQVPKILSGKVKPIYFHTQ
Test: Androgen Receptor ELISA assay (PathScan AR ELISA) in VCaP cells: AR degradation, Dmax and DC50
Type: cell-based
Conditions: for DC50: read-out: VCaP DC50; for Dmax: VCaP
Summary of the method: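 After 24 h exposure of VCaP cells (charcoal-stripped serum, 0.1 nM R1881 agonist, 0.1% DMSO) to seven half-log compound concentrations, residual AR in lysates was measured by PathScan ELISA (TMB absorbance, 450 nm). Cells were plated at 30,000/well and grown at least 3 days beforehand.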

[1] = VCaP cells, Table 36, read-out: VCaP Dmax (%)

Cc1ncsc1-c1ccc([C@H](C)NC(=O)[C@@H]2C[C@@H](O)CN2C(=O)[C@H](c2ncc(CCCN3CCN(c4ccc(C(=O)NC5C(C)(C)C(Oc6ccc(C#N)c(Cl)c6)C5(C)C)cn4)CC3)n2C)C(C)C)cc1 (stereo partly drawn) [Example 702, N-((1r,3r)-3-(3-chloro-4-cyanophenoxy)-2,2,4,4-tetramethylcyclobutyl)-6-(4-(3-(2-((S)-1-((2S,4R)-4-hydroxy-2-(((S)-1-(4-(4-methylthiazol-5-yl)phenyl)ethyl)carbam-oyl)pyrrolidin-1-yl)-3-methyl-1-oxobutan-2-yl)-1-methyl-1H-imidazol-5-yl)propyl)piperazin-1-yl)nicotinamide]
VCaP Dmax (%) (VCaP cells, Table 36): + (Dmax ≤ 25%)
DC50 (VCaP cells, Table 36): > 0.501 µM

Cc1ncsc1-c1ccc(CNC(=O)[C@@H]2C[C@@H](O)CN2C(=O)C(NC(=O)COCCN2CCN(c3ccc(C(=O)N[C@H]4C(C)(C)[C@H](Oc5ccc(C#N)c(C(F)(F)F)c5)C4(C)C)cn3)C(=O)C2)C(C)(C)C)cc1 (stereo partly drawn) [Example 703]
DC50 (VCaP cells, Table 36): > 0.501 µM
Dmax [1]: < 25%

Cc1ncsc1-c1ccc(C(NC(=O)[C@@H]2C[C@@H](O)CN2C(=O)C(NC(=O)COCCN2CCN(c3ccc(C(=O)N[C@H]4C(C)(C)[C@H](Oc5ccc(C#N)c(C(F)(F)F)c5)C4(C)C)cn3)CC2)C(C)(C)C)C2COC2)cc1 (stereo partly drawn) [Example 704, N-((1r,3r)-3-(4-cyano-3-(trifluoromethyl)phenoxy)-2,2,4,4-tetramethylcyclobutyl)-6-(4-(2-(2-(((S)-1-((2S,4R)-4-hydroxy-2-(((R)-(4-(4-methylthiazol-5-yl)phenyl)(oxetan-3-yl)methyl)carbamoyl)pyrrolidin-1-yl)-3,3-dimethyl-1-oxobutan-2-yl)amino)-2-oxoethoxy)ethyl)pipera-zin-1-yl)nicotinamide]
DC50 (VCaP cells, Table 36): > 0.501 µM
Dmax [1]: < 25%

Cc1ncsc1-c1ccc([C@@H](NC(=O)[C@@H]2C[C@@H](O)CN2C(=O)C(NC(=O)COCCN2CCN(c3ccc(C(=O)N[C@H]4C(C)(C)[C@H](Oc5ccc(C#N)c(C(F)(F)F)c5)C4(C)C)cn3)CC2)C(C)(C)C)C2COC2)cc1 (stereo partly drawn) [Example 705, N-((1r,3r)-3-(4-cyano-3-(trifluoromethyl)phenoxy)-2,2,4,4-tetramethylcyclobutyl)-6-(4-(2-(2-(((S)-1-((2S,4R)-4-hydroxy-2-(((S)-(4-(4-methylthiazol-5-yl)phenyl)(oxetan-3-yl)methyl)carbamoyl)pyrrolidin-1-yl)-3,3-dimethyl-1-oxobutan-2-yl)amino)-2-oxoethoxy)ethyl)pipera-zin-1-yl)nicotinamide]
DC50 (VCaP cells, Table 36): < 0.05 µM
Dmax [1]: 26 to 50%

Cc1ncsc1-c1ccc([C@H](C)NC(=O)[C@@H]2C[C@@H](O)CN2C(=O)[C@@H](NC(=O)CN2CCC(O[C@H]3C[C@H](Nc4ccc(C(=O)N[C@H]5C(C)(C)[C@H](Oc6ccc(C#N)c(Cl)c6)C5(C)C)cc4F)C3)CC2)C(C)(C)C)cc1 [Example 706, (2S,4R)-1-((S)-2-(2-(4-((1R,3S)-3-((4-(((1r,3R)-3-(3-chloro-4-cyanophenoxy)-2,2,4,4-tetramethylcyclobutyl)carbamoyl)-2-fluorophenyl)amino)cyclobutoxy)piperidin-1-yl)acetamido)-3,3-dimethylbutanoyl)-4-hydroxy-N-((S)-1-(4-(4-methylthiazol-5-yl)phenyl)ethyl)pyrrolidine-2-carboxamide]
DC50 (VCaP cells, Table 36): < 0.05 µM
Dmax (read-out: VCaP Dmax (%), VCaP cells, Table 36): > 71%

CO[C@@H]1C[C@@H](C(=O)N[C@@H](C)c2ccc(-c3scnc3C)cc2)N(C(=O)[C@@H](NC(=O)CN2CCN(CCCc3ccc(C(=O)N[C@H]4C(C)(C)[C@H](Oc5ccc(C#N)c(C(F)(F)F)c5)C4(C)C)cc3)CC2)C(C)(C)C)C1 [Example 708, (2S,4R)-1-((S)-2-(2-(4-(3-(4-(((1r,3r)-3-(4-cyano-3-(trifluoromethyl)phenoxy)-2,2,4,4-tetramethylcyclobutyl)carbamoyl)phenyl)propyl)piperazin-1-yl)acetamido)-3,3-dimethylbutanoyl)-4-methoxy-N-((S)-1-(4-(4-methylthiazol-5-yl)phenyl)ethyl)pyrrolidine-2-carboxamide]
DC50 (VCaP cells, Table 36): > 0.501 µM
Dmax (read-out: VCaP Dmax (%)): < 25%
